Test results from paper PMC7828231, “Delphinidin Increases the Sensitivity of Ovarian Cancer Cell Lines to 3-bromopyruvate” (International Journal of Molecular Sciences, 2021).
Like-named read-outs stand apart in the source and are kept apart here.

Tests used:
Assay in all cases: Cytotoxicity, Neutral Red survival assay
Format in all cases: cell-based, human
PEO1 cells = settings: Homo sapiens
Method: (§1) SKOV3 and PEO1 cells were seeded in a clear 96-well plate at a density of 1 × 10^4 cells/well in 100-µL culture medium. MRC-5 cells were seeded at a density of 7.5 × 10^3/well and allowed to attach for 24 h at 37 °C. After incubation, the cells were treated with delphinidin chloride in a concentration range of 10–100 µM and 3-BP at concentrations between 5–25 µM for PEO1 and 10–50 µM for MRC-5 and SKOV3. Nontreated cells were used as a control. Stock solutions of tested substances were prepared in DMSO and their working solutions in culture media. The DMSO concentration was adjusted to 0.2% in all samples, which had no significant effect on the treated cells. After 24-h exposure time, the medium was removed and replaced with 100 µL of […] neutral red solution, and the cells were incubated at 37 °C for 1 h. Then, the cells were washed with PBS; fixed with 100 µL/well of 50% ethanol, 49% H2O and 1% glacial acetic acid and shaken (700 rpm) at room temperature for 20 min. Absorbance was measured at 540 nm against 620 nm.

MRC-5 fibroblasts = settings: Homo sapiens, MRC5, read-out: IC50 of cell survival (extrapolated)
Method: as §1

SKOV3 cells = settings: Homo sapiens
Method: as §1

[1] = PEO1, 24 h, PEO1, 24-h exposure, Neutral Red, ND = no reduction of survival in the concentration range studied, read-out: IC50 of cell survival
[2] = PEO1, PEO1, extrapolated from data obtained in the concentration range of 1–100 µM, read-out: IC50 of cell survival (extrapolated)
[3] = SK-OV-3, SKOV3, extrapolated from data obtained in the concentration range of 1–100 µM, read-out: IC50 of cell survival (extrapolated)

Compound | IC50 (PEO1 cells; [1]) [µM] | IC50 (PEO1 cells; [2]) [µM] | IC50 (SKOV3 cells; [3]) [µM] | other results
COc1cc(-c2[o+]c3cc(O)cc(O)c3cc2O)cc(OC)c1O [Malvidin chloride] | – | – | – | IC50 (PEO1 cells; PEO1, read-out: IC50 of cell survival (extrapolated)): > 100 µM; IC50 (MRC-5 fibroblasts): > 100 µM; IC50 (SKOV3 cells; SK-OV-3, 24 h, read-out: IC50 of cell survival): 90 µM
O=c1c(O)c(-c2cc(O)c(O)c(O)c2)oc2cc(O)cc(O)c12 [Myricetin] | 196 | – | – | –
COc1c(O)cc2oc(-c3ccc(O)cc3)cc(=O)c2c1O [Hispidulin] | – | – | – | IC50 (PEO1 cells; PEO1, 24 h, read-out: IC50 of cell survival): 181 µM; IC50 (SKOV3 cells; SK-OV-3, read-out: IC50 of cell survival (extrapolated)): > 100 µM
Oc1cc(O)c2cc(O)c(-c3ccc(O)c(O)c3)[o+]c2c1 [Cyanidin chloride] | 107 | – | – | –
O=c1c(-c2ccc(O)cc2)coc2cc(O)ccc12 [Daidzein] | – | > 100 | > 100 | –
O=c1c(-c2ccc(O)cc2)coc2cc(O)cc(O)c12 [Genistein] | – | > 100 | > 100 | –
